Target: T1, human pcCMT (Homo sapiens, UniProt O60725)
T1 construct: The 3.6-kb full-length HL60 pcCMT cDNA and an 852-bp cDNA fragment comprising the ORF were subcloned into the eukaryotic expression vectors; expressed in transfected cells; host or cells: COS-1 cells (pCDM8 vector, DEAE-dextran transfection); light membranes after nitrogen cavitation
Assay: Carboxyl methylation of prenylcysteine analogs (AFC, AGGC) as defined substrates by the recombinant enzyme in COS-1 membranes
Format: biochemical
Method: Prenylcysteine Carboxyl Methyltransferase Assays: COS-1 cells transfected with HL60 pcCMT or vector alone were harvested at 48 hours with 5 mM EDTA and subjected, in parallel with human neutrophils, to nitrogen cavitation and discontinuous sucrose density centrifugation as described (Philips et al, 1991). Light membranes were assayed for pcCMT activity qualitatively by S-adenosyl-L- [methyl-^3H]methionine labeling (SDS-polyacrylamide gel electrophoresis and flurography) of Rho GTPases partially purified from neutrophil cytosol and quantitatively by carboxyl methylation of N-acetyl-S-trans,trans-farnesyl-L-cysteine (AFC) (heptane partition, alkaline hydrolysis, and measurement of vapor phase [^3H]methanol) as described (Philips et al, 1995)
To determine whether the HL60 STE14 protein homolog has prenylcysteine carboxyl methyltransferase activity, the cDNA was subcloned into a mammalian expression vector PCDM8 (Invitrogen, San Diego, Calif.) and transiently overexpressed ectopically in COS-1 cells. Membranes prepared from these cells were used as a source of recombinant enzyme. Farnesylated Ras GTPases require detergent for extraction from membranes. Therefore, geranylgeranylated neutrophil cytosolic Rho accessory protein, guanine nucleotide dissociation inhibitor (GDI), were utilized as endogenous substrates in an in vitro assay (FIGS. 5A and 5B). Untransfected COS-1 cell membranes had little pcCMT activity toward Rho proteins compared with that of membranes derived from human neutrophils (FIG. 5A). Transfection with the HL60 cDNA conferred pcCMT activity toward Rho GTPases on COS-1 membranes, and this activity was blocked by the competitive pcCMT inhibitor, AFC, with an ED50 (10 μM) identical to that for endogenous neutrophil pcCMT. Carboxyl methylation of Rac2 and RhoA by HL60 pcCMT-transfected COS-1 cell membranes was enhanced by guanosine 5′-3-O-(thio)triphosphate (GTPγS) (FIG. 5B), similar to the activity observed in neutrophil membranes (Philips et al, 1993). Carboxyl methyltransferase activity was quantitated in membranes of COS-1 cells transfected with HL60 pcCMT using prenylcysteine analogs as defined substrates (Philips et al, 1995). Untransfected COS-1 cell membranes had […] (n=5) of the pcCMT specific activity of neutrophil membranes toward AFC.
The Michaelis constants of the recombinant enzyme, Km=7 μM for AFC and 0.6 μM for AGGC, were similar to those for the endogenous neutrophil enzyme (Pillinger et al, 1994). Thus, the cDNA described above encodes authentic human myeloid pcCMT.

T1 sequence (O60725 whole entry, the tested form may be a part): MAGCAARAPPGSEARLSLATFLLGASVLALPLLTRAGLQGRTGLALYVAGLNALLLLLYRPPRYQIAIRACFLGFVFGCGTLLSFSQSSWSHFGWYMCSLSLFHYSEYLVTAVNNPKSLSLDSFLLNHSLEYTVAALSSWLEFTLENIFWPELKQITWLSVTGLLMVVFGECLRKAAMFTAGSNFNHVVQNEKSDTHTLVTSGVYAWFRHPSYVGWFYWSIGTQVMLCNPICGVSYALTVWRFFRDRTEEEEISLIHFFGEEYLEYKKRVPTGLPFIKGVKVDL

CC(=O)N[C@@H](CSC/C=C(\C)CC/C=C(\C)CCC=C(C)C)C(=O)O [AFC, N-acetyl-S-trans,trans-farnesyl-L-cysteine]
Increase in carboxyl methylation of the substrate on pcCMT transfection (n=2): 20 fold
Km (recombinant enzyme, read-out: Michaelis constant Km): 7 µM

Source: US6432403B1, “Antibodies to polypeptides having prenylcysteine carboxyl methlytransferase activity or inhibiting activity” (New York University, priority 1997, dated 2002)
